According to patent US20230382915A1, “GCN2 AND PERK KINASE INHIBITORS AND METHODS OF USE THEREOF” (Deciphera Pharmaceuticals, LLC, priority 2021, published 2023):

How the values were obtained:
PERK enzyme = PERK enzyme (Homo sapiens (Human), UniProt Q9NZJ5); assay: Biochemical assay for PERK (coupled pyruvate kinase/lactate dehydrogenase); settings: 1 mM ATP
Description: Activity of PERK kinase was determined spectroscopically using a coupled pyruvate kinase/lactate dehydrogenase assay that continuously monitors the ATP hydrolysis-dependent oxidation of NADH (e.g., Schindler et al. Science (2000) 289: 1938-1942). Assays were conducted in 384-well plates ([…] final volume) using 10 nM PERK (from Beryllium), 0.25 mg/mL Myelin Basic Protein substrate, 1.5 units pyruvate kinase, 2.1 units lactate dehydrogenase, 1 mM phosphoenol pyruvate, 0.28 mM NADH and 1 mM ATP in assay buffer (100 mM Tris, pH 7.5, 15 mM MgCl2, 0.5 mM DTT, 0.004% (w/v) BSA, and 0.004% Triton X-100). Inhibition of PERK was measured by adding serial diluted test compound (final assay concentration of 1% DMSO). A decrease in absorption at 340 nm was monitored continuously for 6 hours at 30° C. on a multi-mode microplate reader (BioTek). The reaction rate was calculated using the 2-3 h time frame. The reaction rate at each concentration of compound was converted to percent inhibition using controls (i.e., reaction with no test compound and reaction with a known inhibitor) and IC50 values were calculated using software routines in Prism (GraphPad software).

CCRF-CEM leukemia cells = assay: CCRF-CEM ASNase cell proliferation assay; format: cell-based; settings: Homo sapiens, 1 mU/mL ASNase, 72 h
Description: CCRF-CEM leukemia cells (catalog #CCL-116) were obtained from the American Type Culture Collect (ATTC, Manassas, VA). Cells were grown in RPMI-1640 medium supplemented with 10% heat-inactivated fetal bovine serum (Invitrogen, Carlsbad, CA) and 1% Penicillin/Streptomycin/L-Glutamine at 37° C., 5% CO2, and 95% humidity. Cells were expanded until reaching one million cells per mL at which time they are subcultured or harvested for assay use. Ten thousand cells per well in 200 μL RPMI-1640 supplemented with 10% heat-inactivated fetal bovine serum and 1% Penicillin/Streptomycin were dispensed into a 96-well black clear bottom plate. A serial dilution of test compound and 1 mU/mL ASNase was added in triplicate and plates were incubated for 72 h at 37° C., 5% CO2, and 95% humidity. At the end of the incubation, 40 μL of a […] solution of resazurin (Sigma, St. Louis, MO) in PBS was added to each well of the plate and plates were incubated for an additional 6 h at 37° C., 5% CO2, and 95% humidity. Plates were read on a Synergy2 or equivalent reader (Biotek, Winooski VT) using an excitation of 540 nm and an emission of 600 nm. Data was analyzed using GraphPad Prism software (GraphPad, San Diego, CA) to calculate IC50 values.

[1] = system: ATF4 target genes in H929 multiple myeloma cells; assay: H929 UPR/ISR target genes quantitative RT-PCR; format: cell-based
Description: H929 multiple myeloma cells (catalog #CRL-9068) multiple myeloma cells were obtained from the American Type Culture Collection (ATTC, Manassas, VA). Cells were grown in RPMI-1640 medium supplemented with 20% heat-inactivated fetal bovine serum (catalog #A3840002, ThermoFisher Scientific, Waltham, MA), 1% Penicillin/Streptomycin/L-Glutamine (catalog #10378016, ThermoFisher Scientific, Waltham, MA), and 0.05 mM 2-mercaptoethanol (catalog #21985-023, ThermoFisher Scientific, Waltham, MA) at 37° C., 5% CO2, and 95% humidity. Cells were expanded until reaching 70-95% confluency at which point they were subcultured or harvested for assay use. Cells were seeded in 6-well culture plate at 3.0×10^6 cells per well in 2 mL complete growth medium and incubated with indicated concentrations of Compound 2 at 37° C., 5% CO2, and 95% humidity for 4 h. At the end of the incubation, cells were washed with PBS (Sigma) and RNA was extracted using RNeasy® Plus Kits (Qiagen, Germantown, MD). cDNA was synthesized using the High-Capacity cDNA Reverse Transcription Kit (Applied Biosciences, Beverly Hills, CA), and quantitative PCR was performed on a QuantStudio 3 (Applied Biosciences) using TaqMan Assays (Table 1, Thermo) and TaqMan Fast Advanced Master Mix (Thermo) according to manufacturer's specifications.

[2] = system: HT-1080 solid tumor spheroids; assay: Spheroid proliferation assay, HT-1080; format: cell-based; settings: Homo sapiens, HT-1080, 120 h; 5 days, FIG. 11C; read-out: inhibition of cell proliferation IC50, single agent
Description: Non Small Cell Lung Cancer (NSCLC) cell lines H358 (catalog #CRL-5807) and H2030 (catalog #CRL-5914), and fibrosarcoma line HT-1080 (catalog […]) were obtained from the American Type Culture Collect (ATTC, Manassas, VA). Cells were grown in RPMI-1640 medium supplemented with 10% heat-inactivated fetal bovine serum and 1% Penicillin/Streptomycin/L-Glutamine (Invitrogen, Carlsbad, CA) at 37° C., 5% CO2, and 95% humidity and maintained at 50-80% confluency until use. 500-1000 cells were plated in 96-well ultra-low attachment plates (Corning, Glendale, AZ) with complete growth media at 80 μL/well and incubated overnight at 37° C., 5% CO2, and 95% humidity to form spheroids. The next day, serial dilutions of test compounds were prepared in complete growth media and 20 μL/well media containing compound titers was added to spheroids in triplicate. Spheroids were then incubated with test compounds for 5 days under the same conditions. At the end of the incubation, spheroids were lysed with 100 μL/well CellTiter-Glo 3D Viability Assay (Promega, Madison, WI) and luminescence was detected using Synergy2 or equivalent reader (Biotek, Winooski, VT). Data was analyzed using GraphPad Prism software (GraphPad, San Diego, CA) to calculate IC50 values.

PERK enzyme, sequence (Q9NZJ5 other isoform, or with tags, fused parts or gaps): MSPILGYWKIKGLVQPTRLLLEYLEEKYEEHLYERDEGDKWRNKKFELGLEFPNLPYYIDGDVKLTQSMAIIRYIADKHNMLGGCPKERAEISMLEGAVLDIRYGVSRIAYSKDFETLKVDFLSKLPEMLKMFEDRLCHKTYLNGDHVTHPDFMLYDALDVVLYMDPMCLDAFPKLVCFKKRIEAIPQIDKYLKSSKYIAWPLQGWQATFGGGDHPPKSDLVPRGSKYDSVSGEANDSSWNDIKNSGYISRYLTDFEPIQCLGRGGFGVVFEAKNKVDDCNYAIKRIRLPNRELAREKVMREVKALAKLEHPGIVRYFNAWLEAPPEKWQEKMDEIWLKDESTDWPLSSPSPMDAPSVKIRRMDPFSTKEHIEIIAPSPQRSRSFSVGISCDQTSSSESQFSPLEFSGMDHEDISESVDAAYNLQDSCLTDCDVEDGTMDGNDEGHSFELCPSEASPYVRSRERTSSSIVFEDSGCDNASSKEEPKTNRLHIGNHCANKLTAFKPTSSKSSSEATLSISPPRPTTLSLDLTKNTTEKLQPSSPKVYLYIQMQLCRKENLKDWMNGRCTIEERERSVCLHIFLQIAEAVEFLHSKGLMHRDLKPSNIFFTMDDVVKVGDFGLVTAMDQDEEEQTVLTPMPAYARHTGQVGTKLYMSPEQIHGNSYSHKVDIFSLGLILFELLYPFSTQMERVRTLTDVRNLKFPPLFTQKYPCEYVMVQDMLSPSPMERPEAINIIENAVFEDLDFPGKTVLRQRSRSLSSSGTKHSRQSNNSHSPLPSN

## Cn1cc(-c2cccc(NS(=O)(=O)c3cc(Cl)cc(CO)c3Cl)c2F)c2c(N)ncnc21 [Example 2, N-(3-(4-amino-7-methyl-7H-pyrrolo[2,3-d]pyrimidin-5-yl)-2-fluorophenyl)-2,5-dichloro-3-(hydroxymethyl)benzenesulfonamide]
PERK enzyme
  IC50: ≤ 100 nM
CCRF-CEM leukemia cells
  IC50: ≤ 100 nM
[1]; 4 h, fold change over DMSO
  maximum stimulation for ATF4 (gene expression): ~3 folds
  maximum stimulation for CHOP (gene expression): ~10 folds
  maximum stimulation for GADD34 (gene expression): ~3 folds
  maximum stimulation for GPT2 (gene expression): ~3
  maximum stimulation for VEGFA (gene expression): ~2 folds
[1]; FIG. 4, inhibitory phase
  concentrations at which ATF4 target gene expression reverted to basal levels: ≥ 370 nM
[2]
  IC50: 12 nM
